Three compounds from ChEMBL document CHEMBL1126795, “Amesergide and structurally related nor-D-ergolines: 5HT2 receptor interactions in the rat” (J Med Chem, 1993) can be followed below.

The assay can be described thus: Concentration required to inhibit pressor response to serotonin after 15 min i.v. administration of compound mediated via activation of vascular 5-HT2 receptors in rat. The assay is classed as functional, organism-based.
With `CN(CCC(=O)NC1CCCCC1)[C@H]1Cc2cccc3[nH]cc(c23)C1`, the Concentration turned out to be 1 mg/kg. On to `CCCn1cc2c3c(cccc31)C[C@@H](N(C)CCC(=O)NC1CCCCC1)C2`, for which the Concentration came to 1 mg/kg. `CN(CCC(=O)NC1CCCCC1)[C@@H]1Cc2cccc3[nH]cc(c23)C1` returned a Concentration of 1 mg/kg.
